Results from patent publication US12303594B2, “Antimicrobial and anti-inflammatory compositions” (The Texas A&M University System, priority 2015, dated 2025).
≈ marks a conversion by molar mass, not a printed value.

Assays:
[1] = test system: Pseudomonas aeruginosa (strain PA HP3); experiment: Minimum inhibitory concentration (MIC); assay type: cell-based; settings: alone
Procedure: (§1) The final concentrations of aztreonam, ceftazidime and vancomycin were 0.06, 0.13, 0.25, 0.5, 1, 2, 4, 8, 16, 32, 64, and 128 μg/ml. The plates were incubated overnight at 37° C. […] Each triplicate was performed at least twice.

[2] = test system: P. aeruginosa strain PA HP3; experiment: Disc diffusion assay; assay type: cell-based, Pseudomonas aeruginosa; settings: MH agar with 100 μg/mL ibuprofen vs MH agar control
Procedure: A method for disc diffusion assay includes the following: The activity of five antibiotics (amikacin, aztreonam, ceftazidime, colistin, and tobramycin) was assessed against three strains of Pseudomonas aeruginosa (PAM57-15, PAO1 and PA HP3) using a disc diffusion assay. A single colony of P. aeruginosa was picked and grown to an optical density at 650 nm (OD650) of 0.4. […] Discs containing known quantities of the five previously mentioned antibiotics were placed on the two types of agar plates and incubated for 18 hours. The diameters of the zones of inhibition were measured and compared between the MH and MH+IBU plates.

[3] = test system: Pseudomonas aeruginosa (strain PA HP3); experiment: Checkerboard assay with ibuprofen; assay type: cell-based; settings: for MIC: Pseudomonas aeruginosa, read-out: MIC (with ibuprofen); for MIC (with ibuprofen): with 50 μg/mL of ibuprofen
PA HP3 = experiment: 24 hour end point colony forming units (CFU) count study; assay type: cell-based, Pseudomonas aeruginosa; settings: P<0.0001
Procedure: A 24 hour end point colony forming units (CFU) count study was performed. […] Increasing concentrations of aztreonam and ceftazidime were loaded horizontally into each well of two separate 96-well plates starting with zero at the top of the plate. […] The plates were set on a platform shaker at 100 rpm in a 37° C. warm room for 24 hours. After the 24-hour incubation, each well was diluted by taking 50 μl culture into 450 μl of MH broth. A 50 μl aliquot of each dilution was plated on blood agar. This serial dilution step was repeated seven times for each well to reach countable numbers of colonies on the blood agar plates.

[4] = Particle size distribution by laser light diffraction; assay type: physicochemical
Procedure: The particle size distribution (PSD) D10, D50, and D90 values for each sample were defined as particle diameters at the 10th, 50th, and 90th percentile and the span value was calculated according to Equation 2: […]
PSD analysis by laser light diffraction: PSDs were determined using a Sympatec Helos equipped with a Cuvette module (System-Partikel-Technik GmbH, Clausthal-Zellerfeld, Germany). Data were analyzed using the Sympatec WINDOX software. For each measurement, per a previously optimized method, about 2 mg of powder was dispersed in 0.5 mL of 0.1% (w/v) sodium dodecyl sulfate in water and the sample was sonicated for 5 min. […] After the reference measurement, 50 μL aliquots of the sonicated suspension were added to the cell to achieve optical concentrations of between 10 to 20% and the total of six measurements were performed on each sample. Formulations immediately following air-jet milling (25IBU10.1, 25IBU10.2) and after 6 months (25IBU10.1**, 25IBU10.2**) stored at RT (IBU10.1), or at −80° C. (IBU10.2) were analyzed.
PSDs were determined using a Sympatec Helos equipped with a Cuvette module (System-Partikel-Technik GmbH, Clausthal-Zellerfeld, Germany). Data were analyzed using the Sympatec WINDOX software. For each measurement per a previously optimized method, about 2 mg of powder was dispersed in 0.5 mL of 0.1% (w/v) SLS in water and the sample was sonicated for 5 minutes. […] After the reference measurement, 50 μL aliquots of the sonicated suspension were added to the cell to achieve optical concentrations of between 10 to 20% and the total of six measurements were performed on each sample. Analyzed samples included: unprocessed IBU and IND as well as the milled samples from different sections of the jet mill including the tube after grinding chamber (bfC), the cyclone (C), the collection vessel adapter (D), the collection bag adapter (E), the collection vessel (G) and the collection bag (H) for each run. The span value was calculated according to Equation 2.
To estimate the overall D10, D50, and D90 values for the combined recovered fractions associated with each run, stacked bar charts were graphed and analyzed to determine the yield normalized cumulative PSDs. Each stacked bar corresponded to a particle size bin and its height corresponded to the volume density distributions' weighted averages by the yield for each segment of the jet mill. The D10, D50, and D90 values for the normalized cumulative PSDs were the particle sizes corresponding to the 10, 50, and 90% area of the stacked bar chart respectively.
Tween 20 and sodium lauryl sulfate (SLS) were purchased from Fisher Scientific (Fisher Scientific, Pittsburgh, PA, USA), and dH2O was used for preparing solutions. […] A reference measurement was done in 0.1% (v/v) Span 85 in light mineral oil. After a reference measurement, aliquots of […] of sonicated suspension were added to achieve optical concentrations from 10 to 20% for a total of six measurements.
Furthermore, D10, D50, and D90 values for each sample were defined as particle diameters at the 10th, 50th, and 90th percentile of the PSD. Span was calculated according to Equation 2. Normalized cumulative PSDs were composed of yield-normalized distributions, where they were depicted as stacked bar charts. D10, D50, and D90 values for normalized cumulative PSDs were calculated by approximating particle sizes associated with 10%, 50%, and 90% area of the stacked bar chart.

[5] = Angle of repose (USP method); assay type: physicochemical; settings: N = 3
Procedure: Angle of repose: Angles of repose were measured in triplicate according to the United States Pharmacopoeia (USP) method. Images of the powder mounds were taken using a digital camera and were analyzed using the ImageJ software (Wayne Rasband, Research Services Branch, National Institute of Mental Health, Bethesda, MD, USA). […]

[6] = Brunauer-Emmett-Teller specific surface area; assay type: physicochemical; settings: for SSA: N = 3
Procedure: Brunauer-Emmett-Teller: Surface area (SA) was evaluated via a single-point BET method using a Monosorb® surface area analyzer (Quantrachrome Instruments; FL, USA) following 24 hour outgassing with helium at room temperature (RT) before each measurement in triplicate on a known powder mass (m). SSA was calculated using Equation 3: […]
Brunauer-Emmett-Teller (BET) specific surface area (SSA) measurements were taken. Surface area (SA) was evaluated via a single-point BET method using a Monosorb® surface area analyzer (Quantrachrome Instruments; FL, USA) following 24 hour outgassing with helium at room temperature before each measurement in triplicates. Samples masses (m) were at least 50 mg for the jet-milled powders depending on availability and 500 mg for the unprocessed samples. SSA was calculated according to the following formula: […]

[7] = Bulk and tapped density, compressibility index and Hausner ratio; assay type: physicochemical
Procedure: In this modified method, a 10 mL graduated cylinder fitted with a molded adapter substituted the 100 mL graduated cylinder in the tapped density tester. The compressibility index (CI) and Hausner ratio (HR) calculations were performed according to the following formulas: The tapped density (rT) calculations were performed using a tapped density tester (Agilent Technologies, Santa Clara, CA, USA) with a modified method from the USP for a small mass of powder. In this modified method, a 10 mL graduated cylinder fitted with a molded adapter substituted the 100 mL graduated cylinder for the calculations of the bulk density (rB) and the use in the tapped density tester. The compressibility index (CI) and the Hausner ratio (HR) calculations were performed according to the following formulas: […]

[8] = Helium pycnometry true density; assay type: physicochemical; settings: N = 3
Procedure: Helium pycnometry: True densities were measured using an MVP-D160-E multipycnometer (Quantrachrome Instruments; FL, USA) equipped with the micro cell and adapter. Measurements were conducted in triplicates. Before pressure measurements, the multipycnometer was purged with helium gas according to the manufacturer's recommendations.
True densities were measured using a MVP-D160-E multipycnometer (Quantrachrome Instruments; FL, USA). For density measurements, the micro cell and the micro cell adapter were used, and samples weighed at least 0.1 g for the jet-milled powders depending on availability and at least 0.6 g for the unprocessed powders.

[9] = Karl-Fischer moisture analysis; assay type: physicochemical; settings: N = 3
Procedure: Karl-Fischer moisture analysis was performed. The moisture content of the unprocessed and jet-milled powders were measured in triplicates using a Photovolt Aqua-test™ 2010a Moisture Analyser (a.k.a. The CSC Aquapal III, CSC Scientific Inc., Fairfax, VA, USA). Powder moisture contents were calculated by subtracting the moisture content in 1 mL of anhydrous methanol (Fisher Scientific, Pittsburgh, PA, USA) from the moisture content reading from 5 mg powder dissolved in 1 mL of anhydrous methanol.

[10] = test system: methicillin-resistant Staphylococcus aureus (strain MRSA 0646); experiment: Minimum inhibitory concentration (MIC); assay type: cell-based
Procedure: as §1

[11] = test system: methicillin-resistant Staphylococcus aureus (strain MRSA 0646); experiment: Checkerboard assay with ibuprofen
Procedure: A method for checkerboard assay includes the following: The bacteria were diluted in the standard MH broth to a concentration of 5×10^5 in 100 μL, which was added to each well of a 96-well plate. Aztreonam, ceftazidime and vancomycin solutions were prepared from 10 mg/mL stocks in MH broth. […] The plates were incubated and read as noted for the MIC assay. Again, each triplicate was performed at least twice.
Interaction are defined as synergistic if the FIC index is <1, additive if the FIC index is =1 and antagonistic if the FIC index is >1.

[12] = collection bag from jet-milled DFNa, cyclone from jet-milled DF
[13] = normalized cumulative particle size distribution of jet-milled powder
[14] = collection bag fraction or stock, Table 8
[15] = fraction used for testing (IBU collection bag, IND cyclone) or unprocessed powder

Compound | MIC [1] | diameters of the zones of inhibition [2] | MIC [3] | MIC (with ibuprofen) [3] | D10 [4, 12] | D90 [4, 12] | Span [4, 12] | D10 [4, 13] | D90 [4, 13] | Span [4, 13] | D10 ([4]; unprocessed) | D90 ([4]; unprocessed) | Span ([4]; unprocessed) | Angle of Repose [5] | SSA [6] | CI [7] | HR [7] | ρT (tapped density) [7] | ρβ (bulk density) [7] | ρ (true density) [8] | further results
CC(C)(O/N=C(\C(=O)N[C@@H]1C(=O)N2C(C(=O)[O-])=C(C[n+]3ccccc3)CS[C@H]12)c1csc(N)n1)C(=O)O [Ceftazidime, ceftazidime] | 16 µg/mL (≈ 29.3 µM) | significantly increased | 4 µg/mL | 4 (50) μg/mL |  |  |  |  |  |  |  |  |  |  |  |  |  |  |  |  | CFU counts (PA HP3; 2 or 4 μg/mL ceftazidime with 50 or 100 μg/mL ibuprofen vs ceftazidime alone): decreased significantly
O=C(O)Cc1ccccc1Nc1c(Cl)cccc1Cl [DF, diclofenac] |  |  |  |  | 1.31 μm | 4.73 μm | 1.31 | 1.16 μm | 4.48 μm | 1.41 | 2.00 μm | 17.34 μm | 2.20 | 34.5 ± 2.3 ° | 1.73 ± 0.18 m^2/g | 46.67 | 1.88 | 0.30 g/mL | 0.16 g/mL | 1.48 ± 0.01 g/mL | Moisture content [9]: 0.78 ± 0.18%
O=C(O)Cc1ccccc1Nc1c(Cl)cccc1Cl [DFNa, diclofenac sodium] |  |  |  |  | 1.06 μm | 5.52 μm | 1.64 | 1.29 μm | 6.53 μm | 1.61 | 2.02 μm | 42.69 μm | 2.08 | 48.7 ± 5.5 ° | 1.37 ± 0.20 m^2/g | 45.24 | 1.83 | 0.69 g/mL | 0.38 g/mL | 1.51 ± 0.00 g/mL | Moisture content [9]: 1.88 ± 0.20%
COc1ccc2c(c1)c(CC(=O)O)c(C)n2C(=O)c1ccc(Cl)cc1 [unprocessed indomethacin, indomethacin] |  |  |  |  |  |  |  |  |  |  |  |  |  |  |  |  |  |  |  |  | D50 [4, 14]: 26.3 μm; D90 [4, 14]: 64.8 μm; Span [4, 14]: 2.3; Span [4, 15]: 2.25; median size (d50) [4, 15]: 26.3 μm; surface area [6]: 0.435±0.039 m^2/g; Compressibility Index (CI) [7]: 44.7; Hausner Ratio (HR) [7]: 1.81; bulk density [7]: 0.321 g/mL; tap density [7]: 0.580 g/mL
C[C@H]1[C@H](NC(=O)/C(=N\OC(C)(C)C(=O)O)c2csc(N)n2)C(=O)N1S(=O)(=O)O [Aztreonam, aztreonam] | 4 µg/mL (≈ 9.19 µM) | significantly increased | 2 µg/mL | 2 (50) μg/mL |  |  |  |  |  |  |  |  |  |  |  |  |  |  |  |  | CFU counts (PA HP3; 1 μg/mL aztreonam with 50 or 100 μg/mL ibuprofen vs aztreonam alone): decreased significantly
CN[C@H](CC(C)C)C(=O)N[C@H]1C(=O)N[C@@H](CC(N)=O)C(=O)N[C@H]2C(=O)N[C@H]3C(=O)N[C@H](C(=O)N[C@H](C(=O)O)c4cc(O)cc(O)c4-c4cc3ccc4O)[C@H](O)c3ccc(c(Cl)c3)Oc3cc2cc(c3O[C@@H]2O[C@H](CO)[C@@H](O)[C@H](O)[C@H]2O[C@H]2C[C@](C)(N)[C@H](O)[C@H](C)O2)Oc2ccc(cc2Cl)[C@H]1O [Vancomycin, vancomycin] |  |  |  |  |  |  |  |  |  |  |  |  |  |  |  |  |  |  |  |  | MIC [10]: 2 µg/mL (≈ 1.38 µM); MIC ([11]; Staphylococcus aureus, MRSA, read-out: MIC (with ibuprofen)): 1 µg/mL; FIC index ([11]; combination with ibuprofen, <1 synergistic): < 1; MIC (with ibuprofen) ([11]; with 50 μg/mL of ibuprofen): 1 (50) μg/mL
